From patent US12427188B2, “Pyocyanine demethylases and related phenazine degrading agents compositions, methods and systems for interfering with viability of bacteria” (priority 2020, dated 2025)
Read-outs that look alike come from different tables or passages of the source.

B1: PodA: Pyocyanin demethylase of M. fortuitum, SEQ ID NO: 1; in the ABBA experiments the PodA added was PodA10 (protein, listed as Mycobacterium fortuitum)
chain: MTGKTKPAIIGGVAITALAAAGLGVWLFTDGRGGRSTTEPVTMTLDVKNDQVAKHDFGKPGMDVGDMDIFSDILSVDGKQVGYDGGACFFTNVTPDNPMTYCELTIHLDAGEIFARSLTPHTLAPFTMAITGGTGEYANSKGELTVSGVATPDEKYELKLTK

Assays:
[1] = test system: Pseudomonas aeruginosa aggregate biofilms; assay: PodA and tobramycin agar block biofilm assay (ABBA) synergy experiments; format: cell-based; details: for peak PI intensity: PodA10 5 μM, tobramycin 50 μg mL^−1
Procedure: Pseudomonas aeruginosa PodA and tobramycin agar block biofilm assay (ABBA) synergy experiments. Starter Pseudomonas aeruginosa cultures were grown 24 h at 37° C. shaking in LB and the OD500 was determined by diluting cells 1:10. For inoculation into agar, cells were first diluted to an OD of 1.0, followed by a 1:10 dilution for a final OD of 0.1. Molten LB agar (1% w/v) or SCFM agar (1% w/v, made by mixing premade 2× SCFM and 2% agar) was incubated at 44° C., after which 10 μL of OD 0.1 culture was added and mixed into 1 mL of agar, for a final starting OD of 0.001. A portion of the mixture (200 μL) was pipetted into a well of an 8-well glass chamber slide for microscopy (Thermo Fisher Scientific #155409) or into a 2 mL Eppendorf tube for cell viability experiments. ABBAs were incubated at 37° C. for 24 h in a Tupperware lined with wet paper towels. Following growth, ABBAs were washed with 200 μL of HEPES (20 mM, pH 7) to rid planktonic cells growing on the surface of the agar. Treatment stocks (100 μL each) were made by diluting PodA10 and/or tobramycin into HEPES (final concentration of 20 mM, pH 7), with the no treatment control consisting of solely HEPES. Final concentrations of PodA (5 μM) and tobramycin (50 ug mL^−1) were calculated accounting for the total volume of the agar+liquid. ABBAs were treated overnight (14 h), treatment mixture was decanted, and agar blocks were washed with HEPES (400 μL).
For microscopy experiments, cells were incubated for 30 min with 125 μL of diluted propidium iodide (final concentration of 490 μM when added to ABBA, taking into account volume of the agar) and SYTO-9 (final concentration of 16 μM), after which 50 μL of a 1:50 dilution of 5-μm fluorescent beads (Spherotech; CFP-5045-2) was added to each agar block. ABBAs were imaged with a Leica TCS SPE confocal microscope as described elsewhere using 512×512-pixel format (29)[44], with the exception of imaging with a 6 μm step-size in the Z-direction.
For cell viability experiments, 300 μL of HEPES (20 mM, pH 7) was pipetted into each Eppendorf ABBA tube and samples were homogenized on speed 3 of a Bio-Gen PRO200 Homogenizer (PRO Scientific). Samples were briefly spun to rid of air bubbles (<1,000×g) and diluted in series and plated as described above in liquid synergy experiments. Experiments were completed with biological triplicates and was repeated thrice, with a representative figure shown.
ABBA microscopy image analysis. Images were analyzed in FIJI by re-slicing the data set in the XZ dimension followed by a max-intensity Z-projection. The brightness/contrast was auto-normalized in FIJI to the sample treated with only tobramycin. These LUT values were then applied to the other images in the corresponding data sets. Average pixel intensities along the Z-dimensions were found using the “Plot Profile” function in FIJI.
To determine mean pixel intensity and aggregate volume of each ABBA, channels 1 (SYTO-9) and 2 (Propidium Iodide) were combined into a single channel using FIJI. Images were analyzed in Imaris and aggregate masks were created using the “surface” module of the software. Using the surface Imaris wizard, all options under algorithm settings were unchecked. For surface channel settings, channel 3 (representing combined channels) was chosen and default settings were maintained. For threshold settings, the no treatment ABBA sample was analyzed for proper data inclusion and a value of 60 was used for all LB samples, with a threshold value of 40 for all SCFM samples. Lastly, data were excluded 0.1 μm from the XY edges, to exclude aggregates that were cut off due to imaging field. Data were not excluded from the top edge of the ABBA, as images were collected from the surface of the agar using fluorescent beads as described above. Exported statistics were used to plot aggregate volume or mean PI intensity against position of aggregates in the Z-dimension. […]

[2] = Redox potential E0' vs. NHE of redox-active compounds; format: physicochemical; details: measured in aqueous solution at pH 7 in this study (footnote b)
PA14 = assay: Redox cycling, reduction by and survival support of PA14; format: cell-based, P. aeruginosa
[3] = oxidized form; literature values (footnotes a, c, d, e); cited from earlier work
[4] = copper chelating agent; cited from earlier work

Row | Molecule | Support survival? (PA14) | # of Redox cycles over 7 days (PA14) | E^0, (vs. NHE) (mV) [3] | Reduction by PA14? (PA14) | other results
1 | NC[C@H]1O[C@H](O[C@H]2[C@H](O)[C@@H](O[C@H]3O[C@H](CO)[C@@H](O)[C@H](N)[C@H]3O)[C@H](N)C[C@@H]2N)[C@H](N)C[C@@H]1O [tobramycin] |  |  |  |  | PI staining versus non-treated samples ([1]; LB ABBA, hypoxia/anoxia from around 300 μm): no significant differences; peak PI intensity ([1]; LB): 151.0 AUs; PI staining versus no treatment controls ([1]; SCFM ABBA, all depths): considerably higher than no treatment controls at all depths; peak PI intensity ([1]; SCFM): 22.6 AUs
2 | O=C(O)Cc1cc(O)ccc1O [Homogentisic acid (HMA), Homogentisic acid] | No | No cycle |  |  | E^0, (vs. NHE) (mV) [2]: +306^b mV
3 | C[n+]1c2ccccc2nc2c([O-])cccc21 [Pyocyanin (PYO), Pyocyanin] | Yes | 31 | −40^a mV | Yes | 
4 | O=C1c2ccc(S(=O)(=O)O)cc2C(=O)c2ccc(S(=O)(=O)O)cc21 [2,6-AQDS] | No | No cycle | −184 ^d mV | Yes (very slowly) | 
5 | Oc1cccc2nc3ccccc3nc12 [1-Hydroxyphenazine (1-OHPHZ), 1-Hydroxyphenazine] | Yes | 14 | −174 ^a mV | Yes | log of the equilibrium constant βmlh of binding copper [4]: 8.68
6 | CN(C)c1ccc2nc3ccc(=[N+](C)C)cc-3sc2c1 [Methylene blue (MB), Methylene blue] | No | 3 | +11 mV | Yes | E^0, (vs. NHE) (mV) [2]: 0 mV
7 | C[n+]1ccc(-c2cc[n+](C)cc2)cc1 [Paraquat] | No | No cycle | −446^e mV | No | 
8 | O=C(O)c1cccc2nc3ccccc3nc12 [Phenazine-1-carboxylate (PCA), Phenazine-1-carboxylate] | Yes | 22 | −114 ^a mV | Yes | 
9 | B1 |  |  |  |  | outside ring PI staining pattern of aggregates ([1]; LB, XY-plane, versus untreated aggregates): abolished; PI staining at depth ([1]; PodA alone, >300 μm in LB (anoxic zone)): did not significantly change
